Data on six compounds can be found in patent publication US20090306051A1, “Methods and compositions for the treatment of epilepsy, seizure disorders, and other CNS disorders” (priority 2004, published 2009).

For data set [1] the following is noted: cited from earlier work; for T½: as printed in head of release profile table, Example 3.
The conditions of data set [2]: FIG. 2A, IR administration (memantine 20 mg bid, lamotrigine 200 mg qd); cited from earlier work.
Data set [3] deals with mouse electroshock model. Put plainly: Dose ranging study in seizure model (mouse electroshock model). In kind it is in vivo. Conditions: seizure model (e.g., mouse electroshock model). The source says:
An isobolic experiment ensues where the drugs are combined in fractions of their EDXXs to add up to ED100 (i.e., ED50:ED50, ED25:ED75, etc.). The plot of the data is constructed. The experiment points that lie below the straight line between the ED50 points on the graph are indicative of synergy, points on the line are indicative of additive effects, and points above the line are indicative of inhibitory effects. The point of maximum deviation from the isobolic line is the optimal ratio. This is the optimal steady state ratio (Cratio,ss) and is adjusted based upon the component half-lives. Similar protocols may be applied in a wide variety of validated animal models.

Data set [4] in a line: Release profile (cumulative fraction released from formulation matrix to serum or gut environment). In kind it is physicochemical.

Like-named read-outs stand apart in the source and are kept apart here.

For the compound `NCC1(CC(=O)O)CCCCC1` [Gabapentin], in data set [1] (humans), the “Human PK (t½)” value is 6 h and the Tmax is 3 h.

Regarding `Nc1nnc(-c2cccc(Cl)c2Cl)c(N)n1` [Lamotrigine], in data set [2], the Tmax is 2 h and the T½ was 12 h. Besides, in data set [1] (humans), the “Human PK (t½)” value is 12 h and the Tmax was 2 h.

In the case of `CC12CC3CC(C)(C1)CC(N)(C3)C2` [Memantine, 1-amino-3,5-dimethyladamantane], in data set [3], the ED50 result is recorded as “approximately 12 μM”. Further, the cum. fraction is given as 0.2 in data set [4] (Time 1); 0.3 in data set [4] (Time 2); 0.4 in data set [4] (Time 4); 0.5 in data set [4] (Time 8); 0.6 in data set [4] (Time 12); 0.7 in data set [4] (Time 16). The cum. fraction worked out at 0.8 in data set [4] (Time 20) and 0.9 in data set [4] (Time 24). Further, the Tmax in data set [2] is 3 h. Also, the T½ entry in data set [1] is “MEMANTINE T½ = 60 hrs”.

As for `NC(=O)N1c2ccccc2CC(=O)c2ccccc21` [Oxcarbazepine], in data set [1] (humans), the “Human PK (t½) in hrs” value is 2 hr for hrs and the Tmax is 4.5 h.

In the case of `CC1(C)O[C@@H]2[C@@H](CO[C@@]3(COS(N)(=O)=O)OC(C)(C)O[C@@H]23)O1` [Topiramate], the ED50 result in data set [3] is on record as “approximately 5 μM”. Further, in data set [1] (humans), the “Human PK (t½)” value was 21 h and the Tmax is 2 h.

Consider `NS(=O)(=O)Cc1noc2ccccc12` [Zonisamide], for which the cum. fraction is 0.2 in data set [4] (Time 1); 0.3 in data set [4] (Time 2); 0.4 in data set [4] (Time 4); 0.5 in data set [4] (Time 8); 0.6 in data set [4] (Time 12); 0.7 in data set [4] (Time 16). Also, the figures for the cum. fraction in data set [4] (Time 20) and in data set [4] (Time 24) were 0.8 and 0.9, respectively. Moreover, the T½ entry in data set [1] is on record as “ZONISAMIDE T½ = 60 hrs”. Also, in data set [1] (humans), the “Human PK (t½)” value is 63 h. For the same compound, the Tmax in data set [1] (humans) is 4 h.

Usually Tmax stands for the time from dosing to the highest level.
